As a reminder, the pIC50 is the negative decadic logarithm of the IC50, by convention in mol/L.

pIC50: −log10 of the molar value. Counter-ions that a name gives are not always drawn. Like-named read-outs stand apart in the source and are kept apart here.

In assay [1] the target is T1, glycine binding site on the NMDA receptor (Rattus norvegicus, UniProt P35439).
T1 construct: membrane preparations from rat brain; from tissue; host or cells: rat brain membranes
In words: Inhibition of [3H]-DCKA (3H-5,7-dichlorokynurenic acid) binding to the glycine binding site on the NMDA receptor, rat brain membranes.
Procedure: In order to determine the unspecific binding, the corresponding ligands with concentrations of 1 mM glycine and, respectively, 1 mM glutamate are added. Membrane-bound radioligand is separated from non-bound ligands by centrifugation (15 min, at 40 000 kg; ^3 H-DCKA) or filtration (combination of Whatmann GF/C and GF/B filters; ^3 H-AMPA).
The described substances are used in the binding experiments in different concentrations. The concentrations which inhibited 50% of the binding were determined on the basis of dosage-activity curves for the inhibition of the binding of the corresponding radioligands.

The target in assay [2] is glutamate binding site on the kainate/AMPA receptor. In words: Inhibition of [3H]-AMPA binding to the glutamate binding site on the kainate/AMPA receptor, rat brain membranes. The note with it: 10 nM ^3 H-AMPA; membrane preparations from rat brain; unspecific binding with 1 mM glutamate; filtration. As for the experimental part:
Carefully washed membrane preparations from rat brain are used for the binding studies. The radioligands are used with concentrations of 20 nM ^3 H-DCKA and, respectively, 10 nM ^3 H-AMPA.
In order to determine the unspecific binding, the corresponding ligands with concentrations of 1 mM glycine and, respectively, 1 mM glutamate are added. Membrane-bound radioligand is separated from non-bound ligands by centrifugation (15 min, at […]; ^3 H-DCKA) or filtration (combination of Whatmann GF/C and GF/B filters; ^3 H-AMPA).
The described substances are used in the binding experiments in different concentrations.

Where [3] appears, read: 20 nM ^3 H-DCKA, membrane preparations from rat brain, unspecific binding with 1 mM glycine, centrifugation, read-out: [^3 H]-DCKA IC50.

On to `O=c1[nH]nc2c3ccc(Cl)cc3[nH]c(=O)n12` [Example 3, 8-Chloro-2,3,5,6-tetrahydro-1,2,4-triazolo[4,3-c]quinazoline-3,5-dione], for which the negative-log IC50 (pIC50) was 6.36 in assay [1] (setting [3]) and 5.76 in assay [2].

Turning to `O=c1[nH]nc2c3ccc(F)cc3[nH]c(=O)n12` [Example 6, 8-Fluoro-2,3,5,6-tetrahydro-1,2,4-triazolo[4,3-c]quinazoline-3,5-dione], the pIC50 in assay [1] (setting [3]) is 6.15; in assay [2], 5.09.

Take `O=c1[nH]nc2c3ccc(Br)cc3[nH]c(=O)n12` [Example 8, 8-Bromo-2,3,5,6-tetrahydro-1,2,4-triazolo[4,3-c]quinazoline-3,5-dione]: the pIC50 was 6.49 in assay [1] (setting [3]) and 5.93 in assay [2].

In the case of `O=c1[nH]nc2c3ccc(I)cc3[nH]c(=O)n12` [Example 9, 8-Iodo-2,3,5,6-tetrahydro-1,2,4-triazolo[4,3-c]quinazoline-3,5-dione], the pIC50 is 6.72 in assay [1] (setting [3]) and 5.83 in assay [2].

As for `O=c1[nH]nc2c3cc(F)c(Cl)cc3[nH]c(=O)n12` [Example 10, 8-Chloro-9-fluoro-2,3,5,6-tetrahydro-1,2,4-triazolo[4,3-c]quinazoline-3,5-dione], the figures for the negative logarithm of the IC50 (pIC50) in assay [1] (setting [3]) and in assay [2] were 6.69 and 5.90, respectively.

With `O=c1[nH]nc2c3cc(Cl)c(Cl)cc3[nH]c(=O)n12` [Example 11, 8,9-Dichloro-2,3,5,6-tetrahydro-1,2,4-triazolo[4,3-c]quinazoline-3,5-dione], the pIC50 in assay [1] (setting [3]) was 7.51; in assay [2] it was 6.18.

Turning to `O=c1[nH]nc2c3c(Cl)cc(Cl)cc3[nH]c(=O)n12` [Example 12, 8,10-Dichloro-2,3,5,6-tetrahydro-1,2,4-triazolo[4,3-c]quinazoline-3,5-dione], the figures for the pIC50 in assay [1] (setting [3]) and in assay [2] were 7.10 and 6.21, respectively.

For the compound `Cc1cc2[nH]c(=O)n3c(=O)[nH]nc3c2cc1C` [Example 14, 8,9-Dimethyl-2,3,5,6-tetrahydro-1,2,4-triazolo[4,3-c]quinazoline-3,5-dione], the figures for the pIC50 in assay [1] (setting [3]) and in assay [2] were 6.88 and 5.64, respectively.

With `COc1ccc2c(c1)[nH]c(=O)n1c(=O)[nH]nc21` [Example 17, 8-Methoxy-2,3,5,6-tetrahydro-1,2,4-triazolo[4,3-c]quinazoline-3,5-dione], the figures for the negative-log IC50 (pIC50) in assay [1] (setting [3]) and in assay [2] were 6.74 and 5.63, respectively.

As to `O=c1[nH]nc2c3ccc([N+](=O)[O-])cc3[nH]c(=O)n12` [Example 21, 8-Nitro-2,3,5,6-tetrahydro-1,2,4-triazolo[4,3-c]quinazoline-3,5-dione], the pIC50 was 6.16 in assay [1] (setting [3]) and 6.61 in assay [2].

Consider `O=c1[nH]nc2c3ccc(C(F)(F)F)cc3[nH]c(=O)n12` [Example 23, 8-Trifluoromethyl-2,3,5,6-tetrahydro-1,2,4-triazolo[4,3-c]quinazoline-3,5-dione], for which the pIC50 in assay [1] (setting [3]) was 6.42; in assay [2], 6.00.

Regarding `O=c1[nH]nc2c3cc([N+](=O)[O-])c(Cl)cc3[nH]c(=O)n12` [Example 24, 8-Chloro-9-nitro-2,3,5,6-tetrahydro-1,2,4-triazolo[4,3-c]quinazoline-3,5-dione], the pIC50 in assay [1] (setting [3]) and in assay [2] was 6.44 throughout.

As for `O=c1[nH]nc2c3cc(Cl)c([N+](=O)[O-])cc3[nH]c(=O)n12` [Example 25, 9-Chloro-8-nitro-2,3,5,6-tetrahydro-1,2,4-triazolo[4,3-c]quinazoline-3,5-dione], the pIC50 in assay [1] (setting [3]) and in assay [2] was 7.30 in each case.

For the compound `O=c1nc2c3cc(Cl)c([N+](=O)[O-])cc3[nH]c(=O)n2[nH]1` [Example 26, 9-Chloro-8-nitro-1-yl-2,3,5,6-tetrahydro-[1,2,4]triazolo[1,5-c]quinazoline-2,5-dione sodium salt], the pIC50 is 7.37 in assay [1] (setting [3]) and 7.09 in assay [2].

For `O=c1[nH]nc2c3cc(F)c([N+](=O)[O-])cc3[nH]c(=O)n12` [Example 27, 9-Fluoro-8-nitro-2,3,5,6-tetrahydro-1,2,4-triazolo[4,3-c]quinazoline-3,5-dione], the negative logarithm of the IC50 (pIC50) in assay [1] (setting [3]) was 6.44; in assay [2], 6.72.

As for `Nc1cc2c(cc1Cl)[nH]c(=O)n1c(=O)[nH]nc21` [Example 29, 9-amino-8-chloro-2,3,5,6-tetrahydro-1,2,4-triazolo[4,3-c]quinazoline-3,5-dione hydrochloride], the pIC50 in assay [1] (setting [3]) was 5.88; in assay [2] it was 5.07.

On to `CN(C)c1cc2c(cc1[N+](=O)[O-])[nH]c(=O)n1c(=O)[nH]nc21` [Example 30, 9-Dimethylamino-8-nitro-2,3,5,6-tetrahydro-1,2,4-triazolo[4,3-c]quinazoline-3,5-dione], for which the negative logarithm of the IC50 (pIC50) was 6.47 in assay [1] (setting [3]) and 7.33 in assay [2].

Regarding `O=c1[nH]nc2c3cc(N4CCCC4)c([N+](=O)[O-])cc3[nH]c(=O)n12` [Example 32, 8-Nitro-9-pyrrolidin-1-yl-2,3,5,6-tetrahydro-1,2,4-triazolo-[4,3-c]quinazoline-3,5-dione], the pIC50 in assay [1] (setting [3]) is 5.44; in assay [2], 6.79.

`O=c1[nH]nc2c3cc(N4CCOCC4)c([N+](=O)[O-])cc3[nH]c(=O)n12` [Example 34, 9-morpholin-4-yl-8-nitro-2,3,5,6-tetrahydro-1,2,4-triazolo[4,3-c]quinazoline-3,5-dione]: the negative logarithm of the IC50 (pIC50) is 5.07 in assay [1] (setting [3]) and 6.53 in assay [2].

As to `O=c1nc2c3cc(-n4ccnc4)c([N+](=O)[O-])cc3[nH]c(=O)n2[nH]1` [Example 36, 9-Imidazol-1-yl-8-nitro-2,3,5,6-tetrahydro-[1,2,4]-triazolo[1,5-c]quinazoline-2,5-dione], the pIC50 in assay [1] (setting [3]) was 5.59; in assay [2], 7.80.

As to `O=c1[nH]nc2c3cc([N+](=O)[O-])c([N+](=O)[O-])cc3[nH]c(=O)n12` [Example 37, 8,9-Dinitro-2,3,5,6-tetrahydro-1,2,4-triazolo[4,3-c]quinazoline-3,5-dione], the pIC50 in assay [1] is 6.19; in assay [2] it was 6.93.

In the case of `O=c1[nH]nc2c3cc(Br)c([N+](=O)[O-])cc3[nH]c(=O)n12` [Example 38, 9-Bromo-8-nitro-2,3,5,6-tetrahydro-1,2,4-triazolo[4,3-c]quinazoline-3,5-dione], the figures for the negative-log IC50 (pIC50) in assay [1] (setting [3]) and in assay [2] were 7.17 and 7.15, respectively.

For `O=c1[nH]ncc2c1c(O)nc1cc(Cl)ccc12` [Example 43, 8-Chloro-5-hydroxy-3,4-dihydro-pyridazino [4,5-c]quinolin-4-one], in assay [1] (setting [3]), the negative logarithm of the IC50 (pIC50) is 6.04.

In the case of `O=c1[nH][nH]c2c1c(O)nc1cc(Cl)ccc12` [Example 48, 7-Chloro-4-hydroxy-2,3-dihydro-1H-pyrazolo[4,3-c]quinolin-3-one], the pIC50 in assay [1] (setting [3]) is 6.71; in assay [2] it was 5.14.

For the compound `O=c1[nH][nH]c2c1c(O)nc1cc(Cl)c(Cl)cc12` [Example 49, 7,8-Dichloro-4-hydroxy-2,3-dihydro-1H-pyrazolo[4,3-c]quinolin-3-one], the results for the pIC50 in assay [1] (setting [3]) and in assay [2] were 7.14 and 5.86, respectively.

Turning to `O=c1[nH]oc2c1c(=O)[nH]c1cc([N+](=O)[O-])ccc12` [Example 55, 7-nitro-2,3,4,5-tetrahydro-isoxazol-[4,5-c]quinoline-3,4-dione], the pIC50 in assay [1] (setting [3]) was 6.34; in assay [2] it was 6.38.

For the compound `O=c1[nH]oc2c1c(=O)[nH]c1cc(Cl)ccc12` [Example 56, 7-Chloro-2,3,4,5-tetrahydro-isoxazolo[4,5-c]quinoline-3,4-dione], the pIC50 in assay [1] (setting [3]) was 6.58; in assay [2], 7.70.

As to `O=c1nc2c3cc(N4CCCC4)c([N+](=O)[O-])cc3[nH]c(=O)n2[nH]1` [sodium salt], the values for the negative-log IC50 (pIC50) in assay [1] (setting [3]) and in assay [2] were 5.51 and 6.47, respectively.

Source of the values: patent publication US5688803A, “Tricyclic dicarbonyl derivatives” (Hoffmann-La Roche Inc., priority 1994, dated 1997).
